The values below are quoted from earlier work in US20110313040A1, “ORGANIC NUTRIENT SALTS, METHODS OF PREPARATION AND USES” (BELLUS HEALTH INC., priority 2008, published 2011).

The conditions of the series: in vivo.

Take `NCCCS(=O)(=O)[O-].[Na+]` [sodium salt of homotaurine]: the “stomach and gastrointestinal tolerance” value is “caused stomach and gastrointestinal intolerance (e.g. nausea, vomiting)”.
